Reference: the supplement of paper PMC13207355

How the values were obtained:
Details in all cases: exposure time: 72 h
E13 [1] = patient-derived glioblastoma stem cells of classical subtype; test: surviving fraction (nuclei count normalised to DMSO); higher = more cells surviving (less toxic)
E21 [2] = patient-derived glioblastoma stem cells of mesenchymal subtype; test: as above
E28 [3] = patient-derived glioblastoma stem cells of classical subtype; test: as above
E34 [4] = patient-derived glioblastoma stem cells of proneural subtype; test: as above
E57 [5] = patient-derived glioblastoma stem cells of mesenchymal subtype; test: as above
FT3469 [6] = normal neural stem cell line; test: as above
E13 [7] = test: phenotypic distance (Euclidean, principal components) from DMSO controls (arbitrary units); higher = stronger morphological change
E21 [8] = test: as above
E28 [9] = test: as above
E34 [10] = test: as above
E57 [11] = test: as above
FT3469 [12] = test: as above
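For phenotypic distance (Euclidean, principal components) from DMSO controls in this document: cell Painting imaging in 384-well plates, CellProfiler features reduced to at least 20 principal components, Euclidean distance versus same-plate DMSO vehicle wells (0.1% v/v), median over six images per well.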
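For surviving fraction (nuclei count normalised to DMSO) in this document: nuclei counted by high-content imaging of Hoechst-stained cells in laminin-coated 384-well plates, relative to 0.1% DMSO vehicle wells, with staurosporine as cell-death control.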

O=C(/C=C/c1cccnc1)NCCCCC1CCN(C(=O)c2ccccc2)CC1 [Daporinad]
Details | phenotypic distance | surviving fraction
E13 [1], 4.1 nM | – | 0.897
E13 [1], 12.3 nM | – | 0.759
E13 [1], 37 nM | – | 0.712
E13 [1], 111.1 nM | – | 0.732
E13 [1], 333.3 nM | – | 0.779
E13 [1], 1000 nM | – | 0.738
E13 [1], 3000 nM | – | 0.728
E13 [7], 4.1 nM | 1.28 | –
E13 [7], 12.3 nM | 2.03 | –
E13 [7], 37 nM | 2.19 | –
E13 [7], 111.1 nM | 2.19 | –
E13 [7], 333.3 nM | 2.17 | –
E13 [7], 1000 nM | 2.27 | –
E13 [7], 3000 nM | 2.04 | –
E21 [2], 4.1 nM | – | 0.918
E21 [2], 12.3 nM | – | 0.977
E21 [2], 37 nM | – | 1.06
E21 [2], 111.1 nM | – | 0.924
E21 [2], 333.3 nM | – | 0.916
E21 [2], 1000 nM | – | 0.916
E21 [2], 3000 nM | – | 0.873
E21 [8], 4.1 nM | 0.674 | –
E21 [8], 12.3 nM | 0.879 | –
E21 [8], 37 nM | 1.12 | –
E21 [8], 111.1 nM | 1.73 | –
E21 [8], 333.3 nM | 2.59 | –
E21 [8], 1000 nM | 2.69 | –
E21 [8], 3000 nM | 2.46 | –
E28 [3], 4.1 nM | – | 0.436
E28 [3], 12.3 nM | – | 0.459
E28 [3], 37 nM | – | 0.4196
E28 [3], 111.1 nM | – | 0.415
E28 [3], 333.3 nM | – | 0.423
E28 [3], 1000 nM | – | 0.351
E28 [3], 3000 nM | – | 0.379
E28 [9], 4.1 nM | 3.04 | –
E28 [9], 12.3 nM | 3.29 | –
E28 [9], 37 nM | 3.514 | –
E28 [9], 111.1 nM | 3.26 | –
E28 [9], 333.3 nM | 3.25 | –
E28 [9], 1000 nM | 3.51 | –
E28 [9], 3000 nM | 3.47 | –
E34 [4], 4.1 nM | – | 1.02
E34 [4], 12.3 nM | – | 0.865
E34 [4], 37 nM | – | 0.916
E34 [4], 111.1 nM | – | 0.851
E34 [4], 333.3 nM | – | 0.922
E34 [4], 1000 nM | – | 0.8551
E34 [4], 3000 nM | – | 1.04
E34 [10], 4.1 nM | 1.25 | –
E34 [10], 12.3 nM | 1.37 | –
E34 [10], 37 nM | 1.45 | –
E34 [10], 111.1 nM | 1.6 | –
E34 [10], 333.3 nM | 1.35 | –
E34 [10], 1000 nM | 2.32 | –
E34 [10], 3000 nM | 1.37 | –
E57 [5], 4.1 nM | – | 0.731
E57 [5], 12.3 nM | – | 0.677
E57 [5], 37 nM | – | 0.693
E57 [5], 111.1 nM | – | 0.71
E57 [5], 333.3 nM | – | 0.668
E57 [5], 1000 nM | – | 0.562
E57 [5], 3000 nM | – | 0.621
E57 [11], 4.1 nM | 2.92 | –
E57 [11], 12.3 nM | 3.204 | –
E57 [11], 37 nM | 3.213 | –
E57 [11], 111.1 nM | 3.31 | –
E57 [11], 333.3 nM | 3.19 | –
E57 [11], 1000 nM | 3.44 | –
E57 [11], 3000 nM | 3.491 | –
FT3469 [6], 4.1 nM | – | 0.8405
FT3469 [6], 12.3 nM | – | 0.956
FT3469 [6], 37 nM | – | 0.831
FT3469 [6], 111.1 nM | – | 0.93
FT3469 [6], 333.3 nM | – | 0.899
FT3469 [6], 1000 nM | – | 0.892
FT3469 [6], 3000 nM | – | 0.975
FT3469 [12], 4.1 nM | 2.48 | –
FT3469 [12], 12.3 nM | 2 | –
FT3469 [12], 37 nM | 2.62 | –
FT3469 [12], 111.1 nM | 2.52 | –
FT3469 [12], 333.3 nM | 2.17 | –
FT3469 [12], 1000 nM | 2.56 | –
FT3469 [12], 3000 nM | 2.25 | –
